≈ marks a conversion by molar mass, not a printed value.
Experiments:
Test in all cases: ≥ marks a high value that may be exact or a test limit, other limits are often not marked, values filed in µg/mL are converted to µM
[1] = system: Bacillus cereus ATCC 10876
[2] = system: Streptococcus iniae KCTC 3657
[3] = system: Escherichia coli ATCC 25922
[4] = system: Staphylococcus aureus ATCC 29213
[5] = system: Salmonella enterica subsp. enterica serovar Typhimurium ATCC 14028
[6] = system: Pseudomonas aeruginosa ATCC 27853
[7] = system: Staphylococcus aureus ATCC 80958
[8] = system: Escherichia coli ATCC 35218
[9] = system: Klebsiella oxytoca ATCC 13182
[10] = system: Serratia marcescens ATCC 13880
[11] = system: Klebsiella pneumoniae ATCC 700603
[12] = system: Candida glabrata ATCC 2001
[13] = system: Escherichia coli ATCC 43827
[14] = system: Staphylococcus epidermidis ATCC 12228
[15] = system: Candida tropicalis ATCC 750
Candida krusei ATCC 6258 = system: Candida krusei ATCC 6258
Pseudomonas aeruginosa = system: Pseudomonas aeruginosa
Staphylococcus aureus MR = system: Staphylococcus aureus MR
Escherichia coli ESBL = system: Escherichia coli ESBL
[16] = system: Candida albicans ATCC 14053
[17] = system: Cronobacter sakazakii ATCC 29544
[18] = system: Candida parapsilosis ATCC 22019
[19] = system: Bacillus subtilis ATCC 23857
[20] = system: Bacillus subtilis VKM B-886
[21] = system: Pseudomonas aeruginosa PAO1
[22] = system: Bacillus licheniformis VK21
Acinetobacter baumannii = system: Acinetobacter baumannii
[23] = system: Staphylococcus aureus 209P
[24] = system: Escherichia coli BL21(DE3)
[25] = system: Micrococcus luteus VKM B-1314
Escherichia coli C600 = system: Escherichia coli C600
[26] = system: Bacillus megaterium VKM41
Escherichia coli ML-35p = system: Escherichia coli ML-35p

SMILES: CC[C@H](C)[C@H](NC(=O)[C@H](Cc1ccccc1)NC(=O)[C@@H](NC(=O)[C@H](CCCCN)NC(=O)[C@@H](NC(=O)[C@H](CCCCN)NC(=O)[C@H](CCCCN)NC(=O)[C@H](Cc1ccccc1)NC(=O)[C@@H](NC(=O)[C@H](CCCCN)NC(=O)[C@H](CCCN=C(N)N)NC(=O)[C@H](Cc1ccccc1)NC(=O)CNC(=O)[C@H](CCCCN)NC(=O)[C@H](CCCCN)NC(=O)[C@@H](NC(=O)[C@H](CCCCN)NC(=O)[C@H](CCCN=C(N)N)NC(=O)[C@H](Cc1ccccc1)NC(=O)[C@H](Cc1ccccc1)NC(=O)[C@H](CCCCN)NC(=O)[C@H](CCCCN)NC(=O)[C@H](Cc1ccccc1)NC(=O)[C@H](CCCN=C(N)N)NC(=O)[C@H](CCCCN)NC(=O)[C@@H](NC(=O)[C@@H](N)CCCN=C(N)N)C(C)C)[C@@H](C)CC)[C@@H](C)CC)[C@@H](C)O)[C@@H](C)CC)C(=O)NCC(=O)O [RVKRFKKFFRKIKKGFRKIFKKTKIFIG]
- MIC [1]: 12.9 µM (≈ 46 µg/mL)
- MIC [2]: 8.95 µM (≈ 32 µg/mL)
- MIC [3]: 0.559 µM (≈ 2 µg/mL)
- MIC [4]: > 35.8 µM
- MIC [5]: 0.42 µM (≈ 1.5 µg/mL)
- MIC [6]: 0.839 µM (≈ 3 µg/mL)

SMILES: CC[C@H](C)[C@H](NC(=O)[C@H](Cc1ccc(O)cc1)NC(=O)[C@H](Cc1ccc(O)cc1)NC(=O)[C@H](CO)NC(=O)CNC(=O)CNC(=O)[C@H](CC(N)=O)NC(=O)[C@H](CCCN=C(N)N)NC(=O)[C@H](CC(C)C)NC(=O)[C@H](Cc1ccccc1)NC(=O)[C@H](CC(N)=O)NC(=O)CN)C(=O)N[C@H](C(=O)N1CCC[C@H]1C(=O)N[C@@H](C)C(=O)N[C@@H](Cc1ccccc1)C(=O)N[C@@H](CCCN=C(N)N)C(=O)NCC(=O)O)C(C)C [GNFLRNGGSYYIVPAFRG]
- MIC [7]: 30 µM (≈ 59.6 µg/mL)
- MIC [8]: 30 µM (≈ 59.6 µg/mL)
- MIC [9]: 30 µM (≈ 59.6 µg/mL)
- MIC [10]: 30 µM (≈ 59.6 µg/mL)
- MIC [11]: > 30 µM

SMILES: CC(C)C[C@H](NC(=O)[C@H](Cc1cnc[nH]1)NC(=O)[C@H](CC(C)C)NC(=O)[C@H](CO)NC(=O)[C@H](CC(C)C)NC(=O)[C@H](CCCCN)NC(=O)[C@H](Cc1ccccc1)NC(=O)[C@@H]1CCCN1)C(N)=O [PFKLSLHL]
- MIC [12]: 31.4 µM (≈ 30 µg/mL)
- MIC [13]: ≥ 32 µM
- MIC [14]: 64 µM (≈ 61 µg/mL)
- MIC [15]: 15.7 µM (≈ 15 µg/mL)
- MIC (Candida krusei ATCC 6258): 31.4 µM (≈ 30 µg/mL)
- MIC [3]: 32 µM (≈ 30.5 µg/mL)
- MIC (Pseudomonas aeruginosa): 32 µM (≈ 30.5 µg/mL)
- MIC [4]: 128 µM (≈ 122 µg/mL)
- MIC (Staphylococcus aureus MR): ≥ 128 µM
- MIC (Escherichia coli ESBL): ≥ 32 µM
- MIC [6]: 32 µM (≈ 30.5 µg/mL)
- MIC [16]: ≥ 63.9 µM
- MIC [17]: ≥ 64 µM
- MIC [18]: ≥ 63.9 µM
- MIC [19]: ≥ 32 µM
- MIC [11]: 64 µM (≈ 61 µg/mL)

SMILES: CC[C@H](C)[C@H](NC(=O)[C@H](C)NC(=O)[C@@H](NC(=O)CNC(=O)[C@@H](NC(=O)[C@H](CC(N)=O)NC(=O)[C@H](CCCCN)NC(=O)[C@H](C)NC(=O)CNC(=O)[C@H](CC(=O)O)NC(=O)[C@H](Cc1c[nH]c2ccccc12)NC(=O)[C@@H](NC(=O)[C@H](CO)NC(=O)[C@H](CO)NC(=O)[C@H](Cc1c[nH]c2ccccc12)NC(=O)[C@H](Cc1ccccc1)NC(=O)CN)C(C)C)C(C)C)[C@@H](C)O)C(=O)O [GFWSSVWDGAKNVGTAI]
- MIC [20]: 16 µM (≈ 28.7 µg/mL)
- MIC [21]: > 64 µM
- MIC [22]: 16 µM (≈ 28.7 µg/mL)
- MIC (Acinetobacter baumannii): ≥ 64 µM
- MIC [23]: 16 µM (≈ 28.7 µg/mL)
- MIC [4]: > 16 µM
- MIC [24]: ≥ 64 µM
- MIC [25]: 16 µM (≈ 28.7 µg/mL)
- MIC (Escherichia coli C600): ≥ 64 µM
- MIC [26]: 16 µM (≈ 28.7 µg/mL)
- MIC (Escherichia coli ML-35p): ≥ 64 µM

— DBAASP
